Experimental data published in ChEMBL document CHEMBL2074228, “Cloning and functional characterization of a potential-sensitive, polyspecific organic cation transporter (OCT3) most abundantly expressed in placenta” (J Biol Chem, 1998).
Where “and” joins values, the source holds several entries; their conditions need not be identical. Equal entries are not always repeated.

Columns and labels:
[1] = biological target: T1, OCT3 (Solute carrier family 22 member 3) (Rattus norvegicus, UniProt O88446); assay: TP_TRANSPORTER: inhibition of Guanidine uptake (Guanidine: 35 uM, MPTP: 5000 uM) in OCT3-expressing HeLa cells; format: functional, cell-based; parameters: scale not given: the % may be the effect or the level left; conditions: human, probe guanidine (35 uM), read-out: Activity
T1 sequence (O88446 whole entry): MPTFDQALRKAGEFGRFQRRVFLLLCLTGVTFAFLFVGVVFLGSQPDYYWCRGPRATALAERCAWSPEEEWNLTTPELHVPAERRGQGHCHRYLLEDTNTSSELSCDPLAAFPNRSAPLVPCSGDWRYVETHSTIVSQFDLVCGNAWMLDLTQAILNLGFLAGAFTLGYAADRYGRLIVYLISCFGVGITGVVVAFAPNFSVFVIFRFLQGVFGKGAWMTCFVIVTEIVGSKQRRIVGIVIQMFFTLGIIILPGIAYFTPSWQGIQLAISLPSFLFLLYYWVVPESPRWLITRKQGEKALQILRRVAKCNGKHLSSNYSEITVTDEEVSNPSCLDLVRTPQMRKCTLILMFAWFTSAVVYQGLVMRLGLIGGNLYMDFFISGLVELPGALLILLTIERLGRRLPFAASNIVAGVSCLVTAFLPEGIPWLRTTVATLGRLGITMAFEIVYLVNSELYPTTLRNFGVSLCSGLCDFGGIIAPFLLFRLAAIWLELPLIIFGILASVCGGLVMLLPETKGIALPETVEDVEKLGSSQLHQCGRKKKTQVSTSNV

[2] = biological target: T1, OCT3 (Solute carrier family 22 member 3); assay: TP_TRANSPORTER: inhibition of Guanidine uptake (Guanidine: 35 uM, MPP+: 5000 uM) in OCT3-expressing HeLa cells; format: functional, cell-based; parameters: scale not given: the % may be the effect or the level left; conditions: human, probe guanidine (35 uM), read-out: Activity
[3] = biological target: T1, OCT3 (Solute carrier family 22 member 3); assay: TP_TRANSPORTER: inhibition of Guanidine uptake (Guanidine: 35 uM, Desipramine: 5000 uM) in OCT3-expressing HeLa cells; format: functional, cell-based; parameters: scale not given: the % may be the effect or the level left; conditions: human, probe guanidine (35 uM), read-out: Activity
[4] = biological target: T2, Solute carrier family 22 member 3 (Rattus norvegicus, UniProt O88446); assay: TP_TRANSPORTER: uptake in OCT3-expressing HeLa cells; format: functional, cell-based; conditions: human
T2 sequence (O88446 whole entry): T1 sequence (O88446 whole entry)

[5] = biological target: T2, Solute carrier family 22 member 3; assay: TP_TRANSPORTER: uptake in Xenopus laevis oocytes; format: functional, cell-based; conditions: oocyte
[6] = biological target: T1, OCT3 (Solute carrier family 22 member 3); assay: in vitro; conditions: human, OCT3-expressing HeLa cells, probe guanidine (35 uM)
[7] = biological target: T1, OCT3 (Solute carrier family 22 member 3); assay: TP_TRANSPORTER: inhibition of Guanidine uptake (Guanidine: 35 uM, NMN: 5000 uM) in OCT3-expressing HeLa cells; format: functional, cell-based; parameters: scale not given: the % may be the effect or the level left; conditions: human, probe guanidine (35 uM), read-out: Activity
[8] = biological target: T1, OCT3 (Solute carrier family 22 member 3); assay: TP_TRANSPORTER: inhibition of Guanidine uptake (Guanidine: 35 uM, Serotonin: 5000 uM) in OCT3-expressing HeLa cells; format: functional, cell-based; parameters: scale not given: the % may be the effect or the level left; conditions: human, probe guanidine (35 uM), read-out: Activity
[9] = biological target: T1, OCT3 (Solute carrier family 22 member 3); assay: TP_TRANSPORTER: inhibition of Guanidine uptake (Guanidine: 35 uM, TMA: 5000 uM) in OCT3-expressing HeLa cells; format: functional, cell-based; parameters: scale not given: the % may be the effect or the level left; conditions: human, probe guanidine (35 uM), read-out: Activity
[10] = biological target: T1, OCT3 (Solute carrier family 22 member 3); assay: in vitro; conditions: human, OCT3-expressing HeLa cells, probe guanidine (35 uM); remark: listed apart in the source
Description: TP_TRANSPORTER: inhibition of Guanidine uptake (Guanidine: 35 uM, TEA: 5000 uM) in OCT3-expressing HeLa cells

[11] = substrate: CC[N+](CC)(CC)CC; assay: cells, lysate or membranes named

`CN1CC=C(c2ccccc2)CC1` showed an activity at 5000 µM [1] of 14%.

`C[n+]1ccc(-c2ccccc2)cc1` gave an activity at 5000 µM [2] of 22%.

Molecule `CNCCCN1c2ccccc2CCc2ccccc21` [DESIPRAMINE] has an activity at 5000 µM [3] of 1%.

For `N=C(N)N` [GUANIDINE], the Activity [4] was “substrate [+]” and the Activity [5] was “substrate [+]”.

With `CN1CCC[C@H]1c1cccnc1` [NICOTINE] the activity at 5000 µM [6] was 52%.

Work on `CNC(=O)c1cccnc1` [NICOTINYL METHYLAMIDE] yielded an activity at 5000 µM [7] of 33%.

Molecule `NCCc1c[nH]c2ccc(O)cc12` [SEROTONIN] has an activity at 5000 µM [8] of 30%.

With `C[N+](C)(C)C` [TETRAMETHYLAMMONIUM] the activity at 5000 µM [9] was 59%.

Work on `CC[N+](CC)(CC)CC` [TETRYLAMMONIUM] yielded an activity at 5000 µM [10] of 41%.

B1: Solute carrier family 22 member 3 (Rattus norvegicus) (protein)
chain: T1 sequence (O88446 whole entry)
In the case of B1, the Km [11] is reported as 2.5 mM and 6.2 mM.
